Where no end group is shown, it is not given here.
Tests used:
[1] = test system: alpha9/alpha10 heteromeric acetylcholine receptor; experiment: Block of the acetylcholine receptor of the inner ear (stated finding, no method given)
[2] = test system: outer hair cells (OHCs); experiment: Whole-cell patch-clamp recordings of inhibitory postsynaptic currents on outer hair cells; format: cell-based, Wistar rats; conditions: apamine 10 nM; OHCs held at −64 mV, high extracellular K+
Procedure: The preparation was performed in a solution containing (in mM) 144 NaCl, 5.8 KCl, 0.1 CaCl2, 2.1 MgCl2, 10 HEPES, 0.7 Na2HPO4, 5.6 glucose, pH adjusted to 7.3 with NaOH. For recordings, OHCs located between half and one turn from the apex of the cochlea were chosen. If necessary, supporting cells were removed with gentle suction from a cleaning pipette carefully avoiding mechanical disturbance of the efferent nerve terminals.
Whole-cell patch-clamp recordings were performed with an Axopatch 200B amplifier (Axon Instruments, Foster City, Calif.) at room temperature (22-25° C.). Electrodes were pulled from quartz glass, had resistances of 2-3 MΩ and were filled with intracellular solution (in mM): 135 KCl, 3.5 MgCl2, 0.1 CaCl2, 5 EGTA, 5 HEPES, 2.5 Na2ATP. The pH of the solution was adjusted to pH 7.3 with KOH. Membrane potential was corrected for the electrode junction potential (−4 mV). Whole-cell series resistance ranged from 4 to 9 MΩ and was not compensated. Currents were filtered at 1 kHz and sampled at 5 kHz.
The specimen were continuously superfused with extracellular solution (in mM: 144 NaCl, 5.8 KCl, 2 CaCl2, 0.9 MgCl2, 10 HEPES, 0.7 Na2HPO4, 5.6 glucose, pH adjusted to 7.3 with NaOH). Chemicals as well as depolarizing solutions were applied via a glass capillary (diameter approximately 80 μm) positioned close to the organ of Corti. […]

## CC12CC3CC(C)(C1)CC(N)(C3)C2 [memantine, 3.5-dimethyl-1-adamantan-amine]
[1]
  block of the acetylcholine receptor: blocked efficiently

## apamine (CNCKAPETALCARRCQQH; not fully specified (C-terminus, bridges); cysteine pairing not given here; UniProt P01500 28-45, looked up)
[2]
  inhibition of postsynaptic currents (IPSCs): complete inhibition
